Data as given in patent publication US4400384A, “5-o-Cyanobenzyl-4,5,6,7-tetrahydrothieno [3,2-c] pyridine methanesulfonate and other novel salts thereof” (Sanofi, S.A., priority 1980, dated 1983).

Legend:
[1] = Hypolipidic, hypocholesterol, hypoglycemic activity; details: in vivo
red globules = experiment: Anti-sludge activity in vitro on red globules; type: cell-based
[2] = test system: blood-platelet aggregation; experiment: Inhibition of blood-platelet aggregation (general statement); type: in vivo; details: result in words
Protocol: (§1) The inhibitor action on blood-platelet aggregation of the salts of the present invention was determined by two different standard methods known to the art.
(§2) The first method, involving the use of ADP (adenosine diphosphate), is that of Ferrand J. C., Gaich C., Dumas, A.--EVALUATION DE L' EFFET ANTI-AGREGANT DE LA TICLOPIDINE PAR UNE TECHNIQUE SUR SANG TOTAL. COMM. SOCIETE DE BIOLOGIE DE TOULOUSE (TOULOUSE Feb. 9, 1978), RESUME IN: REV MED TOULOUSE, 1978, 14, (SUPPL. 5) 680, referred to hereinafter as the ADP method.
The second method is that described in Ferrand J. C., Lale A.--NUMERATION ET AGREGATION PLAQUETTAIRE A L AIDE DE L AUTOCOUNTER. APPLICATION A L ETUDE DE LA TICLOPIDINE. COMM. SYMPOSIUM TECHNICON INDUSTRIE (PARIS, June 15, 1978); Ferrand J. C., Lale A.--EVALUATION EX-VIVO DE L AGREGATION PLAQUETTAIRE PAR UNE TECHNIQUE AUTOMATIQUE SUR SANG TOTAL COMM. SOCIETE FRANCAISE DE BIOLOGIE CLINIQUE (PARIS Sept. 28, 1979); and J. C. Ferrand, A. Lale, D. Aubert and G. Barthelemy--APPRECIATION QUANTITATIVE DE L' ACTIVITE ANTI-AGREGANTE DE LA TICLOPIDINE PAR VOIE AUTOMATIQUE. COMM. REUNION DE L' ASOCIATION FRANCAISE DE PHARMACOLOGISTES DIJON (May 2-3, 1980), and is referred to hereafter as the collagen method. […]

Diuretic activity = details: in vivo
[3] = test system: musculotropic isolated intestine; experiment: Anti-spasmodic activity on isolated intestine
Acute toxicity in mice = details: mouse, in vivo
Protocol: (§3) The preferred methanesulfonate salt of the present invention was tested for acute and sub-acute toxicity and the results obtained on rats and mice by oral, intravenous and intraperitoneal administration are set forth in the tables below.

human patients = experiment: Clinical study, first series: tolerance; type: in vivo; details: oral capsules, 350 to 1400 mg per day, 3 weeks, 12 patients
Protocol: The MS salt has been administered to human patients orally in the form of capsules each containing 175 mg of the active salt. Twelve patients were treated in four groups; one group receiving 2 capsules per day (350 mg); a second group receiving 4 capsules per day (700 mg); a third group receiving 6 capsules per day (1050 mg); and the fourth group receiving 8 capsules per day (1400 mg). This regimen was continued for 3 weeks.

Acute toxicity in rats = details: rat, in vivo
Protocol: as §3

dogs = experiment: Toxicity by oral administration in dogs; type: in vivo; details: 33 to 100 mg/Kg/day, 24 days
Protocol: Further toxicity investigations were carried out on the MS salt by oral administration in dogs. Two groups of 10 adult dogs were selected; one group being used as the control and the second group having the MS salt administered orally in increasing dosages as follows: […]

[4] = test system: blood-platelet aggregation (ADP); experiment: Inhibitor action on blood-platelet aggregation, ADP method (ex vivo after gastric tube dosing); type: in vivo, female rats of the Wistar type; details: 100 mg/Kg base equivalent at 48, 24 and 2 h before blood drawing
Protocol: as §1, §2
Groups of 10 female rats of the Wistar type were each dosed with one of the base or one of the salts of the invention and with the corresponding maleate salt of Amselem U.S. Pat. No. 4,097,482, at periods of 48 hours, 24 hours and 2 hours prior to drawing blood for testing by the ADP and collagen techniques referred to above. The active medicaments were administered by means of a gastric tube in the form of a 5% aqueous solution of gum arabic. A dosage level of 100 mg/Kg was used for the base, and for the salts an amount was used sufficient to provide the equivalent amount of the base portion of the salt.

rats = experiment: Sub-acute toxicity in rats, oral, 6 weeks; type: in vivo
Protocol: These tests were carried out on four groups of 30 rats, 15 males and 15 females in each group; the rats all being type SPF adults. Administration was by the oral route, carried out 5 days per week for a period of 6 consecutive weeks.

central nervous system [5] = experiment: Central nervous system activity per se, mice; type: in vivo
rabbit = experiment: Cardiovascular action in anesthetized rabbit; type: in vivo; details: perfusions at high dosages
central nervous system [6] = experiment: Central nervous system activity per se, rats; type: in vivo
patients = experiment: Clinical study, second series: tolerance; type: in vivo, human; details: oral capsules, 700 mg per day, 7 days plus morning of 8th day, 11 patients
Protocol: In a second series of tests, the MS salt was again administered orally in the form of capsules containing 175 mg of the active salt. Eleven patients were treated, each patient receiving 4 capsules per day containing a total of 700 mg of MS salt divided in two portions of 350 mg morning and evening, after meals, for 7 days, and on the 8th day in the morning only. Therefore, the total amount of active ingredient (MS salt) was 5250 mg to each subject.

Anti-thrombotic activity = details: in vivo
[7] = test system: central nervous system activity of chloral and "Nembutal"; experiment: Potentiation of central nervous system activity of chloral and Nembutal; type: in vivo
Analgesic activity = details: in vivo
Hemostasis activity = details: in vivo
[8] = oral, 50, 150, 300 mg/Kg, 5 days per week, 6 weeks

**Q.** Which results are given for `CS(=O)(=O)O.N#Cc1ccccc1CN1CCc2sccc2C1` [Methanesulfonate, 5-o-Cyanobenzyl-4,5,6,7-tetrahydrothieno [3,2-c] pyridine methanesulfonate]?
**A.** hypocholesterol activity [1]: no hypolipidic, hypocholesterol; hypoglycemic activity [1]: no hypolipidic, hypocholesterol, or hypoglycemic activity; hypolipidic activity [1]: no hypolipidic; anti-sludge activity in vitro (red globules): anti-sludge activity in vitro on red globules; inhibitor action against blood-platelet aggregation [2]: excellent inhibitory action against blood-platelet aggregation; diuretic activity (Diuretic activity): free of diuretic activity; anti-spasmodic activity [3]: exhibit anti-spasmodic activity; LD50 at 8 h (Acute toxicity in mice; intravenous, read-out: LD50, intravenous, mice): 134 mg/kg; LD50 at 8 h (Acute toxicity in mice; ip, intraperitoneal, read-out: LD50, intraperitoneal, mice): 898 mg/kg; LD50 at 8 h (Acute toxicity in mice; oral, read-out: LD50, oral, mice): 883 mg/kg; clinical tolerance (human patients): Clinical tolerance was excellent; side effects or incidents (human patients): no side effects or incidents being noted; LD50 at 8 h (Acute toxicity in rats; intravenous, read-out: LD50, intravenous, rats): 80.2 mg/kg; LD50 at 8 h (Acute toxicity in rats; ip, intraperitoneal, read-out: LD50, intraperitoneal, rats): 719 mg/kg; deaths attributable to the salt (dogs): No deaths occurred which were attributable to the MS salt; hematological, blood biochemical or urinary functions (dogs): No significant variations; vomiting (dogs): some of the dogs experienced some vomiting; BLOOD PLATELET AGGREGATION, ADP, 1 mn 30 s ([4]; 1 mn 30 s, controls 0.29): 0.73; BLOOD PLATELET AGGREGATION, ADP, 3 mn ([4]; 3 mn, controls 0.40): 0.88; toxicity and tolerance (overall) (rats; conclusion from acute and sub-acute tests): low toxicity and good tolerance; microscopic examination of principal organs (rats; end of test period or 15 days thereafter): normal in appearance with exception of some signs of gastric intolerance; histological examination of the organs (rats; oral, 6 weeks): good tolerance; behavior of the dosed animals (rats; [8]): No significant modification of the behavior; death attributable to administration (rats; [8]): nor was there any death attributable to the administration of the MS salt; influence on the central nervous system per se, mice (central nervous system [5]): no influence on the central nervous system; cardiovascular depressive action (rabbit): cardiovascular depressive action; influence on the central nervous system per se, rats (central nervous system [6]): no influence on the central nervous system; clinical tolerance (patients): Clinical tolerance was excellent; anti-thrombotic activity (Anti-thrombotic activity): exhibits anti-thrombotic activity; potentiation of central nervous system activity of Nembutal ([7]; "Nembutal" (Ca or Na pentobarbital)): does potentialize the central nervous system activity; potentiation of central nervous system activity of chloral ([7]; chloral): does potentialize the central nervous system activity of chloral; analgesic properties (Analgesic activity): free of analgesic properties; hemostasis activity (Hemostasis activity): no hemostasis activity
